Measurements reported in PMC8387043, “Host Poly(A) Polymerases PAPD5 and PAPD7 Provide Two Layers of Protection That Ensure the Integrity and Stability of Hepatitis B Virus RNA” (Journal of Virology, 2021).
Like-named read-outs stand apart in the source and are kept apart here.

Columns and labels:
[1] = molecular target: T1, recombinant human PAPD7 (Homo sapiens, UniProt Q5XG87); experiment: PAPD7 ATP depletion assay; format: biochemical
T1 construct: PAPD7 (amino acids 226 to 558; NM_006999.6); 10xHis (N); Flag (N); TEV cleavage site (N); host or cells: E. coli BL21(DE3), vector pET-24a(+)
T1 sequence (Q5XG87 226-558): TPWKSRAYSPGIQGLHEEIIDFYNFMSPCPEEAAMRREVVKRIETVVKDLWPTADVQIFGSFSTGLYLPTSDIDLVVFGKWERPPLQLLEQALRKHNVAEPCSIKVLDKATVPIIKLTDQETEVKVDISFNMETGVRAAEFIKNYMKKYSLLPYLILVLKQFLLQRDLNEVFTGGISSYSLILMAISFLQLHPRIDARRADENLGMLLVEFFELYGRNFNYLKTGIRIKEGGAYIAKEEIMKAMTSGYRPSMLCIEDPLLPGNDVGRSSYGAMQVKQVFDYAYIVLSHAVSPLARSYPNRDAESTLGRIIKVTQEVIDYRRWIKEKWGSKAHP
Description: Molecular cloning, expression, and purification of the recombinant human PAPD5 and PAPD7 proteins were performed at Xtal BioStructures (MA, USA). PAPD5 (amino acids 186 to 518; GenBank accession no. XM_011523275) and PAPD7 (amino acids 226 to 558; GenBank accession no. NM_006999.6) genes comprising of nucleotidyltransferase and PAP-associated domains were codon optimized, synthesized, and inserted in the expression vector pET-24a(+) for E. coli expression with 10×His-Flag-tobacco etch virus (TEV) tags at the N terminus. The pET-24a(+) constructs were transformed into E. coli-competent cells BL21(DE3). […] Expression of protein was induced for 16 h with 0.2 mM IPTG (isopropyl-β-D-thiogalactopyranoside) at 18°C. […] Roche). Cell suspension was sonicated 8 × 20 s at 27 to 30 W (power level, 3.5 to 4.0) with 40-s breaks between each pulse. Lysate was cleared by centrifugation in a 50-ml conical tube at 20,000 × g for 30 min (Fiberlite F13-14 × 50cy rotor in a Sorvall RC6 centrifuge). Supernatant was incubated with Ni-charged MagBeads (GenScript; catalog no. […] Bound proteins were washed with 50 ml binding buffer and eluted in elution buffer containing a gradient of imidazole ranging from 5 to 500 mM. Peak fractions were pooled and stored in 50% glycerol at -80°C. Reactions were carried out in duplicate in 96-well low-profile, skirted, white plates (catalog no. AB0800WL; […] The reaction mixtures were incubated at room temperature for 3 h, and ATP depletion was monitored by using Kinase-Glo luminescent kinase kit following the manufacturer's instructions (catalog no. V6712; Promega, WI, USA).

[2] = test system: HBV RNA poly(A) tails; experiment: HBV poly(A) tail length and composition (NGS) in HepAD38 cells; format: cell-based, hepatitis B virus; details: HepAD38, 70 nM
Description: RNA metabolism in most eukaryotic mRNAs employs the 3′ deadenylation pathway in which poly(A) tail shortening is often observed prior to mRNA degradation ([38][–][40]). We therefore determined the HBV poly(A) tail length and composition from HepAD38 cells in the presence or absence of AB-452. To amplify the HBV poly(A) tail, G/I (guanosine and inosine nucleotides) tailing was added to the 3′ ends of mRNA transcripts, and the newly added G/I tails were used as the priming sites to synthesize the cDNA that would be used for amplification of HBV poly(A) tails. The lengths and compositions of the amplicons containing the HBV RNA poly(A) tails were analyzed by next-generation sequencing (PacBio Sequel sequencing platform). […] The poly(A) tails amplified from β-actin cDNAs served as the negative control, which was not affected by the treatment (Fig. 3D).
ACTB GSP primers include 5′-[…] -3′ (sense) and 5′-[…] -3′(antisense). Amplified products were used as loading control. […] Accuracy cutoff default was 0.9.

[3] = Cytotoxicity (summary statement); format: cell-based; details: several cell lines from different tissue origins; 30 μM highest concentration tested
[4] = test system: Influenza; experiment: organism not typed; format: cell-based; details: MDBK, CPE
[5] = test system: HBsAg; experiment: HBsAg inhibition in adenovirus-HBsAg-transduced HepG2-NTCP WT and KO clones; format: cell-based, hepatitis B virus; details: for EC50: Hepatitis B virus

COCCCOc1cc2c(nc1OC)-c1cc(=O)c(C(=O)O)cn1[C@H](C(C)C)C2 [AB-452]
IC50 [1]: 498 nM
average HBV RNA poly(A) tail length ([2]; 4 h, untreated around 100): 58 nucleotides
fraction of poly(A) tails containing internal G ([2]; untreated 64%): 25%
CC50 [3]: > 30 µM
EC50 [4]: > 30 µM
EC50 ([5]; T222, read-out: Adeno infection EC50, P7_KO (T2-22), HBsAg): 7.1 ± 1.3 nM
EC50 ([5]; read-out: Adeno infection EC50, P5_KO (T3-4), HBsAg): 71.6 ± 31.2 nM
EC50 ([5]; read-out: Adeno infection EC50, P5_KO (T3-15), HBsAg): 56 ± 34 nM
EC50 ([5]; read-out: Adeno infection EC50, P7_KO (T2-8), HBsAg): 10 ± 1 nM
EC50 ([5]; read-out: Adeno infection EC50, WT (parent) HepG2-NTCP, HBsAg): 9 ± 4.6 nM
Adeno infection FC vs WT ([5]; P5_KO (T3-4)): 8.0
Adeno infection FC vs WT ([5]; P5_KO (T3-15)): 6.3
Adeno infection FC vs WT ([5]; P7_KO (T2-8)): 1.1
Adeno infection FC vs WT ([5]; P7_KO (T2-22)): 0.8
Adeno infection FC vs WT ([5]; WT (parent)): 1
inhibition in P5/7_DKO and Z14_KO cell lines ([5]; adenovirus-transduced and HBV-infected clones (Fig. 7D to G)): did not show further inhibition than the untreated controls
